Data from the supplement of paper PMC4858399.
Where a name gives a salt, the structure may show the parent alone.

Experiments:
[1] = system: Caenorhabditis elegans N2; assay: lowest effective concentration for larval growth inhibition (size below effect threshold); higher = less potent; conditions: exposure time 48 h
Method in brief: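 Log-transformed well means of per-worm extinction, read as size on a Biosort, came from 50 C. elegans N2 L1 larvae per 96-well grown 48 h at 20°C in K-medium with killed bacteria, 1% DMSO and 0.5 to 200 µM chemical. The lowest effective concentration is the first dose at which the plate-adjusted mean size is below the threshold and stays below it at every higher dose. The threshold is 5.665.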

[2] = system: Caenorhabditis elegans N2; assay: mean nematode size ln(EXT) after 48 h, plate-adjusted (DMSO control set to 6) (ln(EXT), control-adjusted); higher = larger nematodes / less growth inhibition; conditions: exposure time 48 h
Method in brief: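 In K-medium with killed OP50, 1% DMSO and 0.5–200 µM chemical, synchronised N2 L1 larvae of C. elegans (50 per well) grew for 48 h at 20°C. Extinction was read for every worm on the Biosort, with debris removed by a growth model. Natural-log values averaged per well gave mean size, which was corrected per plate by subtracting the vehicle control mean and adding 6.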

| SMILES | lowest effective concentration [1] [µM] | mean nematode size ln(EXT) (ln) ([2]; 0.5 µM) | mean nematode size ln(EXT) (ln) ([2]; 1 µM) | mean nematode size ln(EXT) (ln) ([2]; 5 µM) | mean nematode size ln(EXT) (ln) ([2]; 10 µM) | mean nematode size ln(EXT) (ln) ([2]; 50 µM) | mean nematode size ln(EXT) (ln) ([2]; 100 µM) | mean nematode size ln(EXT) (ln) ([2]; 200 µM) |
| --- | --- | --- | --- | --- | --- | --- | --- | --- |
| COC(=O)c1ccc(I)cc1S(=O)(=O)NC(=O)Nc1nc(C)nc(OC)n1 [Iodosulfuron-methyl-sodium] | > 200 | 6.1 | 6.11 | 5.88 | 6.04 | 6.15 | 6.07 | 5.89 |
| CCCCCCC(=O)OCC [Heptanoic acid, ethyl ester] | > 200 | 5.88 | 5.93 | 5.82 | 6.08 | 5.85 | 5.89 | 6.02 |
| ClC1C(Cl)C(Cl)C(Cl)C(Cl)C1Cl (stereo not drawn) [beta-1,2,3,4,5,6-Hexachlorocyclohexane] | > 200 | 5.52 | 5.63 | 5.65 | 5.7 | 5.74 | 5.75 | 5.87 |
| CCCCCCOCCO [Ethylene glycol monohexyl ether] | > 200 | 5.81 | 6.03 | 5.9 | 5.93 | 5.72 | 5.89 | 5.77 |
| COC(=O)c1ccccc1C(=O)O [Methyl hydrogen phthalate] | > 200 | 6.07 | 6.01 | 6.1 | 6.07 | 6.14 | 6.14 | 5.95 |
| COc1ccc(C)cc1N [p-Cresidine] | > 200 | 5.84 | 5.85 | 5.84 | 5.83 | 5.85 | 5.89 | 5.83 |
| CCCN(CCC)C(=O)SCC [EPTC] | > 200 | 6.11 | 6.22 | 6.09 | 6 | 6.1 | 6.12 | 5.86 |
| CCc1cccc(CC)c1N [2,6-Diethylaniline] | > 200 | 5.78 | 5.83 | 5.81 | 5.8 | 5.82 | 5.84 | 5.68 |
| COC(=O)CSc1cc(/N=c2\sc(=O)n3n2CCCC3)c(F)cc1Cl [Fluthiacet-methyl] | > 200 | 5.92 | 5.93 | 5.96 | 5.96 | 5.98 | 5.95 | 5.92 |
| CC(C)c1ccc(C(=O)N=C(N)N)cc1S(C)(=O)=O [Cariporide mesylate (HOE642)] | > 200 | 5.88 | 5.82 | 5.8 | 5.77 | 5.7 | 5.62 | 5.71 |
| Cc1ccc(C)c(O)c1 [2,5-Dimethylphenol] | > 200 | 5.86 | 5.95 | 5.74 | 5.83 | 5.95 | 5.83 | 5.72 |
